In US20050043315A1, “Aminopyrimidine compounds, processes for their preparation and pharmaceutical compositions containing them” (priority 2002, published 2005):

How the values were obtained:
[1] = test system: ddY mice; assay: Anticatalepsy activity in mouse (haloperidol-induced catalepsy); format: in vivo; conditions: 3.2 mg/kg orally, ddY mice n=7; haloperidol 0.32 mg/kg i.p. 30 min after compound; measured 30 min after injection
Method: The test compound (3.2 mg/kg) was administered orally with ddY mice(n=7). Then, haloperidol (0.32 mg/kg) was injected intraperitoneally 30 min. after the administration of the compound. Thirty min. after the injection, the cataleptic responses of mice were measured. The forelimbs of each mouse were placed on a 3 cm high, 3 mm wide horizontal bar, and the duration of cataleptic posture was measured for up to 30 sec.

[2] = target: human A2a receptor (Homo sapiens, UniProt P29274); assay: Adenosine antagonistic activity, radioligand binding with [3H]CGS 21680; conditions: [3H]CGS 21680 20 nM
Method: (§1) The adenosine antagonistic activity [Ki(nM)] of the test compound was examined by radioligand binding techniques using 8-cyclopentyl-1,3-dipropylxanthine, [dipropyl-2,3-^3H(N)] ([^3H]DPCPX, 4.5 nM) for human A1 receptor and [^3H]CGS 21680 (20 nM) for human A2a receptor.

[3] = target: T1, human A1 receptor (Homo sapiens, UniProt P30542); assay: Adenosine antagonistic activity, radioligand binding with [3H]DPCPX; conditions: [3H]DPCPX 4.5 nM
T1 sequence (P30542 1-326): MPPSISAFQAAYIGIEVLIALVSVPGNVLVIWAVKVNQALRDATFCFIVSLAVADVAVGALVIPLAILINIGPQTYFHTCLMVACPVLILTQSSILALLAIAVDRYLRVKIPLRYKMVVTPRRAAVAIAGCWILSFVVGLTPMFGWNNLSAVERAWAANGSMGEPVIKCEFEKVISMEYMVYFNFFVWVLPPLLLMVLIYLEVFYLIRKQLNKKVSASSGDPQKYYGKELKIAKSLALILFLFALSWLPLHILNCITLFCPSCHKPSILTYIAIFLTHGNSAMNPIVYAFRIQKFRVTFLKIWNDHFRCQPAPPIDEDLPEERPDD
Method: as §1

human A2a receptor, sequence (P29274 whole entry): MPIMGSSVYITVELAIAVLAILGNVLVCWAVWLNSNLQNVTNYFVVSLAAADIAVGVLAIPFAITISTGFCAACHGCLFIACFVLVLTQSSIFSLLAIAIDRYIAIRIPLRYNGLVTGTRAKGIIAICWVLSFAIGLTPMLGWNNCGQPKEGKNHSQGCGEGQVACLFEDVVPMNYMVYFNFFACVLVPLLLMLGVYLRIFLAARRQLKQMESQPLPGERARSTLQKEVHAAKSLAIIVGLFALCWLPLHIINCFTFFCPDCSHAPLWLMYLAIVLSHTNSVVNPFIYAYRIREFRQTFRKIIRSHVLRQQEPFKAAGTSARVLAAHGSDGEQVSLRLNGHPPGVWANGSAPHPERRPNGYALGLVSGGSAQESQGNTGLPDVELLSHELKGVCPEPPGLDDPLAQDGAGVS

**Q.** What does the source list for `Nc1ncc(-c2ccc(=O)[nH]n2)c(-c2ccccc2)n1` [Example 1, 6-(2-Amino-4-phenyl-5-pyrimidinyl)-3(2H)-pyridazinone]?
**A.** Manifestation rate of catalepsy (number of mouse) [1]: 4/7; Ki [2]: 3.85 nM; melting point: > 280 °C; Ki [3]: 11.3 nM

**Q.** For `CCn1nc(-c2cnc(N)nc2-c2ccccc2)ccc1=O` [Example 4, 6-(2-Amino-4-phenyl-5-pyrimidinyl)-2-ethyl-3(2H)-pyridazinone], which “Manifestation rate of catalepsy (number of mouse)” value (shortened to “Manifestation rate of catalepsy”) [1] is on record?
**A.** 0/7

**Q.** What about the Ki [2] of the same compound?
**A.** 4.35 nM

**Q.** And the melting point?
**A.** 255 to 256 °C

**Q.** And the Ki [3]?
**A.** 3.14 nM

**Q.** For `CC(=O)Nc1ncc(-c2ccc(=O)n(C(C)C)n2)c(-c2ccccc2)n1` [Example 7, N-[5-(1-Isopropyl-6-oxo-1,6-dihydro-3-pyridazinyl)-4-phenyl-2-pyrimidinyl]acetamide], which “Manifestation rate of catalepsy” value [1] is on record?
**A.** 0/7

**Q.** What about the Ki [2] of the same compound?
**A.** 2.09 nM

**Q.** And the melting point?
**A.** 209 to 210 °C

**Q.** What about the Ki [3] of the same compound?
**A.** 6.47 nM

**Q.** Which “Manifestation rate of catalepsy” value [1] does the source give for `CC(C)n1nc(-c2cnc(NCc3ccccn3)nc2-c2ccccc2)ccc1=O` [Example 18, 2-Isopropyl-6-{4-phenyl-2-[(2-pyridinylmethyl)amino]-5-pyrimidinyl}-3(2H)-pyridazinone] here?
**A.** 0/7

**Q.** And the Ki [2]?
**A.** 7.38 nM

**Q.** What about the melting point of the same compound?
**A.** 143 to 144.5 °C

**Q.** What about the Ki [3] of the same compound?
**A.** 10.8 nM

**Q.** Which “Manifestation rate of catalepsy” value [1] does the source give for `CC(C)n1nc(-c2cnc(N)nc2-c2ccco2)ccc1=O` [Example 47, 6-[2-Amino-4-(2-furyl)-5-pyrimidinyl]-2-isopropyl-3(2H)-pyridazinone] here?
**A.** 1/7

**Q.** And the Ki [2]?
**A.** 1.38 nM

**Q.** What about the melting point of the same compound?
**A.** 215 °C

**Q.** What about the Ki [3] of the same compound?
**A.** 7.74 nM

**Q.** Which “Manifestation rate of catalepsy” value [1] does the source give for `CC(C)n1nc(-c2c(F)nc(N)nc2-c2ccccc2)ccc1=O` [Example 136, 6-(2-Amino-4-fluoro-6-phenyl-5-pyrimidinyl)-2-isopropyl-3(2H)-pyridazinone] here?
**A.** 0/7

**Q.** And the Ki [2]?
**A.** 1.41 nM

**Q.** What about the melting point of the same compound?
**A.** 231 to 232.5 °C

**Q.** And the Ki [3]?
**A.** 1.75 nM

**Q.** Which “Manifestation rate of catalepsy” value [1] does the source give for `COCCOc1ccc(-c2nc(N)ncc2-c2ccc(=O)n(C(C)C)n2)cc1` [Example 212, 6-{2-Amino-4-[4-(2-methoxyethoxy)phenyl]-5-pyrimidinyl}-2-isopropyl-3(2H)-pyridazinone] here?
**A.** 0/7

**Q.** And the Ki [2]?
**A.** 1.7 nM

**Q.** And the melting point?
**A.** 147 °C

**Q.** And the Ki [3]?
**A.** 2.36 nM

**Q.** With `CC(C)n1nc(-c2cnc(N)nc2-c2ccoc2)ccc1=O` [Example 241, 6-[2-Amino-4-(3-furyl)-5-pyrimidinyl]-2-isopropyl-3(2H)-pyridazinone] as the compound, how does the melting point read?
**A.** 216 °C

**Q.** For `CC(C)n1nc(-c2cnc(N)nc2-c2ccsc2)ccc1=O` [Example 242, 6-[2-Amino-4-(3-thienyl)-5-pyrimidinyl]-2-isopropyl-3(2H)-pyridazinone], which melting point is on record?
**A.** 234 °C

**Q.** With `COc1cccc(OC)c1-c1nc(N)ncc1-c1ccc(=O)n(C(C)C)n1` [Example 243, 6-[2-Amino-4-(2,6-dimethoxyphenyl)-5-pyrimidinyl]-2-isopropyl-3(2H)-pyridazinone] as the compound, how does the melting point read?
**A.** 260 °C

**Q.** For `Cn1nc(-c2cnc(N)nc2-c2ccoc2)ccc1=O` [Example 244, 6-[2-Amino-4-(3-furyl)-5-pyrimidinyl]-2-methyl-3(2H)-pyridazinone], which melting point is on record?
**A.** 241 °C

**Q.** Which melting point does the source give for `Cn1nc(-c2cnc(N)nc2-c2ccsc2)ccc1=O` [Example 245, 6-[2-Amino-4-(3-thienyl)-5-pyrimidinyl]-2-methyl-3(2H)-pyridazinone] here?
**A.** 252 °C

**Q.** With `CN(C)c1ncc(-c2ccc(=O)n(C)n2)c(-c2ccc(Cl)cc2)n1` [Example 246, 6-[4-(4-chlorophenyl)-2-(dimethylamino)-5-pyrimidinyl]-2-methyl-3(2H)-pyridazinone] as the compound, how does the melting point read?
**A.** 166 °C

**Q.** For `COc1ccc(-c2nc(N(C)C)ncc2-c2ccc(=O)n(C)n2)cc1` [Example 247, 6-[2-(Dimethylamino)-4-(4-methoxyphenyl)-5-pyrimidinyl]-2-methyl-3(2H)-pyridazinone], which melting point is on record?
**A.** 165 °C

**Q.** Which melting point does the source give for `CN(C)c1ncc(-c2ccc(=O)n(C)n2)c(-c2cccc(F)c2)n1` [Example 248, 6-[2-(Dimethylamino)-4-(3-fluorophenyl)-5-pyrimidinyl]-2-methyl-3(2H)-pyridazinone] here?
**A.** 184 °C

**Q.** With `COc1ccc(-c2nc(N(C)C)ncc2-c2ccc(=O)n(C)n2)cc1F` [Example 249, 6-[2-(Dimethylamino)-4-(3-fluoro-4-methoxyphenyl)-5-pyrimidinyl]-2-methyl-3(2H)-pyridazinone] as the compound, how does the melting point read?
**A.** 158 °C

**Q.** For `COCC(C)n1nc(-c2cnc(N)nc2-c2ccccc2)ccc1=O` (centres unmarked) [Example 250, 6-(2-Amino-4-phenyl-5-pyrimidinyl)-2-(2-methoxy-1-methylethyl)-3(2H)-pyridazinone], which melting point is on record?
**A.** 180 to 181 °C

**Q.** Which melting point does the source give for `CC(CO)n1nc(-c2cnc(N)nc2-c2ccccc2)ccc1=O` (centres unmarked) [Example 251, 6-(2-amino-4-phenyl-5-pyrimidinyl)-2-(2-hydroxy-1-methylethyl)-3(2H)-pyridazinone] here?
**A.** 222 to 223 °C

**Q.** For `CC(C)n1nc(-c2c(Cl)nc(N)nc2-c2ccccc2)ccc1=O` [Example 252, 6-(2-amino-4-chloro-6-phenyl-5-pyrimidinyl)-2-isopropyl-3(2H)-pyridazinone], which melting point is on record?
**A.** 235 to 237 °C

**Q.** Which melting point does the source give for `Cc1nc(N)nc(-c2ccccc2)c1-c1ccc(=O)n(C(C)C)n1` [Example 253, 6-(2-amino-4-methyl-6-phenyl-5-pyrimidinyl)-2-isopropyl-3(2H)-pyridazinone] here?
**A.** 213 to 215 °C
